The values that follow come from paper PMC9304322, “Targeting retinoic acid receptor alpha-corepressor interaction activates chaperone-mediated autophagy and protects against retinal degeneration” (Nature Communications, 2022).

The test system of the test is KFERQ-Dendra mice. Description: CMA activity in tissues of KFERQ-Dendra mice.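 For % cells: percentage of blood CD4+ T cells with more than 3 CMA puncta per cell.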 In kind it is in vivo, mouse. On the set-up: Fig. 3g value / Fig. 3g value, Mean 2: unit not given here. The settings on record: for Fig. 3g value, Mean 2: group mean of the test details, n 6; for Fig. 3g value / % cells: single replicate values; for % cells: Fig. 3d; for fluorescent Dendra+ puncta in liver: KFERQ-Dendra mice, i.p. 30 mg/kg bw daily for 3 days; for number of Dendra+ puncta per cell in retina (Fig. 4f), average / number of Dendra+ puncta per cell in retina (Fig. 4f), individual fields: flat-mounted retinas; for number of Dendra+ puncta per MAP2 + cell (Fig. 4b), individual sections: hippocampus (CA1 region), i.p. 30 mg/kg bw daily for three consecutive days. As for the experimental part:
C57BL/6 J mice wild-type (WT) and homozygous for the Pde6 mutation (rd10 mouse model of retinal degeneration) were obtained from The Jackson Laboratory and experiments were performed at the age indicated in each part of the study. C57BL/6 KFERQ-Dendra mice were generated by back-crossing FVB KFERQ-Dendra mice with wild-type C57BL/6 mice for 8 generations. Both male and female animals were used in this study in equally distribution groups. However, results from both sexes were pooled, because of absence of significant differences in any of the parameters analyzed after statistical analysis with a mixed model of two-way ANOVA sex and treatment as independent variables and the corresponding measure as dependent variable. All animals were housed in a barrier-controlled facility (19–23 °C 30–60% relative humidity; 12 h light/dark cycle) with ad libitum access to standard chow pellets (protein 19 gm%/carbohydrate 67 gm%/fat 4 gm%) and water. For animal administration of CA compounds, a formula containing 30% PEG 400 (Sigma, #8.0745), 65% of 5% glucose solution, 5% Tween 80 (Sigma, #P1754) was used to dissolve them. CA compounds were prepared freshly by adding 5% DMSO and sonicating for 1 h. Treatment of KFERQ-Dendra mice with the CA compounds was done at 4 months of age by i.p. daily injection of 30 mg/kg bw or vehicle for three consecutive days and tissues collected 6 h after the last injection. In the case of rd10 mice, animals were daily injected from P18 to P25 with CA77 (40 mg/kg bw). In the case of intravitreal administration, a single intravitreal injection was applied at P18 with CA77 (40 µM) in DMSO/PBS and the contralateral eye was injected with PBS and DMSO at same concentration. At P26, mice were sacrificed and eyes fixed overnight with 4% PFA (Sigma, #P6148) in PBS at 4 °C for immunofluorescence or retinas dissected and immediately frozen for biochemistry. Distribution of animals in the vehicle or treatment group was done randomly. ICR (CD-1) outbred 3 months old male mice from ENVIGO were used for the pharmacokinetic studies (see pharmacokinetic section for housing and handling details). All animal studies and procedures complied with ethical regulations, were performed in accordance with the European Union guidelines and the ARVO Statement for the Use of Animals in Ophthalmic and Vision Research and were approved by the Institutional Animal Care and Use Committee at the Albert Einstein College of Medicine, the CSIC Bioetica Comite and approved by the Comunidad de Madrid, PROEX232/17.
All mice were perfused with PBS. Livers were post-fixed overnight at 4 °C in picric acid fixation buffer (2% formaldehyde, 0.2% picric acid in PBS, pH7.0) and then washed with 70% ethanol, followed by two washes in PBS. Livers were immersed in 30% sucrose and then embedded in OCT for sectioning in a cryostat (Leica CM3050 S). After airdrying for 30 min, sections were stored at −20 °C until use. Brains were post-fixed for 12 h in 4% paraformaldehyde, cryoprotected in PBS containing 20% sucrose before being frozen by immersion in a cold isopentane bath (−50 °C), and stored immediately at −80 °C until sectioning. Brains were also sectioned in a cryostat at −20 °C in coronal 40 μm-thick free-floating sections. Immunostainings were performed after permeabilization of the sections with 0.3% Triton X-100 in PBS for 30 minutes at RT followed by blocking (10% normal goat serum, 2% Triton X-100 in PBS) and subsequent incubation with the primary and appropriate anti-species secondary antibody. Cell nuclei were stained using Hoechst (Life Technologies, 33342) at 1:5000 for 30 s (in retina) or 10 min (in brain sections) prior to mounting. Images were acquired with a Leica confocal TCS-SP8 (Leica Microsystem) using an HCX Plan Apo CS ×63.0 1.40 NA oil objective and the Leica Application Suite X (LAS X). Puncta was quantified using ImageJ Software (NIH)[38] after thresholding. […]

Setting [1] is: i.p. 30 mg/kg bw daily for three days.
Where [2] appears, read: i.p. 30 mg/kg bw daily for three days, 30 mg/kg.

SMILES strings stand for the structures. Values joined by “and” are separate entries in the source; they are usually repeats but may differ in a detail not shown here. Equal values may be shown once.

For the compound `Clc1ccc2c(c1)OCC(c1ccc(-c3ccccc3)cc1)=N2` [CA39], the “Fig. 3g value, Mean 2” value is given as 20; the “Fig. 3g value” was 16.28 and 30.33 and 23.44 and 14.29 and 16.39 and 19.29; the “% cells” value was 21% and 39% and 30% and 21.8% and 22.6% and 12.2% and 9.5% and 24.2% and 12.8% and 21.2%; the “fluorescent Dendra+ puncta in liver” value is recorded as “significant increase in the number of fluorescent Dendra^+ puncta”. Also, the “number of Dendra+ puncta per cell in retina (Fig. 4f), average” value under setting [1] turned out to be 1.185 puncta/cell. Besides, the “number of Dendra+ puncta per cell in retina (Fig. 4f), individual fields” value under setting [2] is 1.154 puncta/cell and 0.857 puncta/cell and 0.867 puncta/cell and 0.700 puncta/cell and 1.556 puncta/cell and 1.350 puncta/cell and 1.500 puncta/cell and 0.737 puncta/cell and 1.385 puncta/cell and 0.958 puncta/cell and 0.950 puncta/cell and 2.000 puncta/cell and 1.182 puncta/cell and 1.400 puncta/cell. In addition, the “number of Dendra+ puncta per MAP2 + cell (Fig. 4b), individual sections” value (30 mg/kg) was 20 and 22 and 18 and 25 and 16 and 15 and 12 and 10. Further, the “number of Dendra+ puncta in individual TH+ cells (Fig. S8d)” value (midbrain substantia nigra, i.p. 30 mg/kg bw daily for three days, 30 mg/kg) is 27 and 32 and 4 and 2 and 55 and 34 and 23 and 3 and 21 and 1 and 48 and 38 and 6 and 39 and 22 and 45 and 12 and 35.
Turning to `CC(=O)Nc1ccc(C2=Nc3ccc(Cl)cc3OC2)cc1` [CA77], the “Fig. 3g value, Mean 2” value stood at 17.33; the “Fig. 3g value” was 10 and 12 and 22 and 23 and 19 and 18; the “% cells” value was 9% and 28% and 12% and 18% and 22% and 17% and 32% and 26%; the “fluorescent Dendra+ puncta in liver” value is listed as “significant increase in the number of fluorescent Dendra^+ puncta”. The “number of Dendra+ puncta per cell in retina (Fig. 4f), average” value under setting [1] came to 1.396 puncta/cell. Under setting [2], the “number of Dendra+ puncta per cell in retina (Fig. 4f), individual fields” value was 1.250 puncta/cell and 1.040 puncta/cell and 1.583 puncta/cell and 1.063 puncta/cell and 1.100 puncta/cell and 1.667 puncta/cell and 1.375 puncta/cell and 1.846 puncta/cell and 1.000 puncta/cell and 1.750 puncta/cell and 1.684 puncta/cell. Further, the “number of Dendra+ puncta per MAP2 + cell (Fig. 4b), individual sections” value (30 mg/kg) was 22 and 17 and 15 and 26 and 12 and 18 and 9 and 5.
